According to patent US5445951A, “Regioselective enzymatic deacylation of sucrose esters in anhydrous organic media” (priority 1993, dated 1995):
Read-outs that look alike come from different tables or passages of the source.

Assays:
lipase AY 30 [1] = test: Effect of the solvent on lipase AY 30 SOA deacetylation; assay type: biochemical, Candida cylindracea; conditions: lipase AY 30, solvent as labelled, 24 hrs
Description: (§1) Identical enzyme catalyzed SOA deacetylations were run in numerous anhydrous solvents. After 24 hrs incubation an aliquot was analyzed by HPLC.
(§2) Enzyme and Solvent Screening for SOA Deacetylation. A scintillation vial was charged successively with 100 mg of powdered enzyme as received or prepared as described and 1.0 ml of 20 mM sucrose octaacetate (SOA) dissolved in an organic solvent. Following a 5 sec sonication, the vial was incubated in a controlled-temperature shaker at 45° C. and 300 RPM for 24 hrs. A 200 μl aliquot of the reaction mixture was withdrawn and centrifuged. The supernatant was collected and evaporated under a stream of N2. The residue was reconstituted in 200 μl of acetonitrile and 10 μl of this solution was analyzed by HPLC.

[2] = n-octanol/water, cited from earlier work
[3] = test system: lipase AY 30 deposited on Hyflo Super Cell; test: Solvent effect on lipase AY 30 deposited on Hyflo Super Cell catalyzed deacetylation of SOA; assay type: biochemical, Candida cylindracea; conditions: immobilized lipase AY 30, 24 hrs
Description: (§3) Alcalase and lipase AY 30 were deposited on Hyflo Super Cell and used as catalysts for SOA deacetylation reactions in several anhydrous solvents.
(§4) Enzyme immobilization. The pH of a solution of 900 mg of buffered alcalase in 18 ml of water was adjusted to 9.0 with dilute NaOH. Hyflo super cell (6 g) was added and the slurry thoroughly mixed. […] Lipase AY 30 was immobilized in the same manner except that the protein solution was adjusted to pH 7.0 with sodium phosphate.
as §2

proleather = test: Solvent effect on proleather catalyzed deacetylation of SOA; assay type: biochemical, Bacillus subtilis; conditions: 24 hrs; for SheptaA: total of 1'-OH and 6'-OH heptaacetates; for SOA / ShexaA: solvent as labelled
Description: as §1
(§5) The pH of commercial powdered enzymes was adjusted in the following way: The enzyme (3 g) was dissolved in 25 ml of an appropriate buffer and the pH adjusted with dilute NaOH or citric/phosphoric acid solution. Cold acetone (37.5 ml at -20° C.) was added and the precipitate collected on a medium porosity glass funnel and dried overnight at 2 millitorr. The protein pellet was ground to a fine powder and equilibrated at 4° C. over saturated aqueous potassium carbonate (RH: 43%) for 24 hrs.
as §2

alcalase = molecular target: T1, alcalase (Bacillus licheniformis, UniProt P00780); test: Solvent effect on alcalase catalyzed deacetylation of SOA; assay type: biochemical; conditions: 24 hrs; for SheptaA: total of 1'-OH and 6'-OH heptaacetates; for SOA / ShexaA: solvent as labelled
T1 construct: purchased Novo Nordisk (gift)
T1 sequence (P00780 106-379): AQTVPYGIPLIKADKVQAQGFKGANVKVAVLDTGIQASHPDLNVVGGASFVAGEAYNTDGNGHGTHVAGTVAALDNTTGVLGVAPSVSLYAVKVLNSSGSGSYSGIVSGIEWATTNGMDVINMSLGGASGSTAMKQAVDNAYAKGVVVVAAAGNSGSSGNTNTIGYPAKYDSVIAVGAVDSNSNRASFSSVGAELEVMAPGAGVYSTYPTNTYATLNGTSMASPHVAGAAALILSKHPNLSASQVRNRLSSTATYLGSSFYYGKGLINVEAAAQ
Description: as §1
Enzyme Precipitation. Alcalase was prepared by adding 37.5 ml cold acetone (-20° C.) to 25 ml of alcalase solution as supplied by Novo. The aqueous acetone was decanted and the residue dissolved in 25 ml of pH 9.0 glycine--NaOH buffer. The pH of this solution was adjusted to 9.0 with a few drops of dilute NaOH solution. Cold acetone (37.5 ml at -20° C.) was added to the buffered alcalase solution and the precipitate collected by filtration on a medium porosity glass funnel and dried overnight at 2 millitorr. The resulting pellet was ground to a fine powder and stored at 4° C. over saturated aqueous potassium carbonate (RH: 43%) for 24 hrs.
as §2

lipase AY 30 [4] = test: Effect of the solvent on lipase AY 30 catalyzed deacylation of SOP; assay type: biochemical, Candida cylindracea; conditions: for ShexaP (4.2 min) / SheptaP's (8.9 min) / SheptaP's (9.4 min) / SheptaP's ([…]): lipase AY 30, 24 hrs; for ShexaP (4.2 min): HPLC peak 4.2 min; for SheptaP's (8.9 min): HPLC peak 8.9 min; for SheptaP's (9.4 min): HPLC peak 9.4 min; for SheptaP's ([…]): HPLC peak […]; for SOA: lipase AY 30, solvent as labelled, 200 mM butanol, 24 hrs, peak 21.4 min; as to SheptaP's ([…]): HPLC peak 8.2 min
Description: Identical SOP deacylations were performed with lipase AY 30 or protease type XXIII in numerous anhydrous organic solvents, as shown in Tables 12 and 13.
as §2, with “Solvent” for “Enzyme and Solvent”, “screening” for “Screening”, “SOP deacylation.” for “SOA Deacetylation.”, “lipase AY 30” for “powdered enzyme as received”, “protease type XXIII” for “prepared”, “octapropionate (SOP) and 200mM butanol” for “octaacetate (SOA)”

[5] = test system: alcalase deposited on Hyflo Super Cell; test: Solvent effect on alcalase deposited on Hyflo Super Cell catalyzed deacetylation of SOA; assay type: biochemical, Bacillus licheniformis; conditions: immobilized alcalase, 4 hour incubation; for SheptaA: total of 1'-OH and 6'-OH heptaacetates
Description: as §3, §4
as §2, with “Following a 5 sec sonication, the vial was incubated in a controlled-temperature shaker at 45° C. and 300 RPM for 24 hrs.” left out

lipase AP 12 = test: Solvent effect on lipase AP 12 catalyzed deacetylation of SOA; assay type: biochemical, Aspergillus niger; conditions: lipase AP 12, solvent as labelled, 24 hrs
Description: as §1, §5, §2

| Compound | SOA (lipase AY 30 [1]) [%] | SheptaA (lipase AY 30 [1]) [%] | ShexaA (lipase AY 30 [1]) [%] | log P ([2]; from Laane et al.) | SOA [3] [%] | SheptaA [3] [%] | SheptaA (proleather) [%] | SOA (proleather) [%] | ShexaA (proleather) [%] | SheptaA (alcalase) [%] | SOA (alcalase) [%] | ShexaA (alcalase) [%] | ShexaP (4.2 min) (lipase AY 30 [4]) [%] | SheptaP's (8.9 min) (lipase AY 30 [4]) [%] | SheptaP's (9.4 min) (lipase AY 30 [4]) [%] | SheptaP's ([…]) (lipase AY 30 [4]) [%] | SOA (lipase AY 30 [4]) [%] | SOA [5] [%] | ShexaA [5] [%] | SheptaA [5] [%] | also measured |
| --- | --- | --- | --- | --- | --- | --- | --- | --- | --- | --- | --- | --- | --- | --- | --- | --- | --- | --- | --- | --- | --- |
| COC(C)(C)C [t-butyl methyl ether] | 61.6 | 28.8 | 9.6 | 1.3 | 96.0 | 4.0 | 24.4 | 72.4 | 3.2 | 6.8 | 92.6 | 0.6 | 0.8 | 0.3 | 5.9 | 4.3 | 88.7 | 97.3 | 0 | 2.7 | – |
| CCCCCCCCO [octanol] | – | – | – | – | – | – | – | – | – | – | – | – | 0 | 0 | 1.1 | 1.8 | 97.1 | – | – | – | log P [2]: 3.0 |
| CCCCOC(C)=O [n-butyl acetate] | 95.2 | 4.6 | 0.4 | 1.7 | 97.6 | 2.4 | 16.5 | 81.3 | 2.2 | 2.4 | 97.6 | 0 | 0 | 0 | 0.7 | 1.4 | 97.9 | – | – | – | SOA (lipase AP 12): 97.6%; SheptaA (lipase AP 12): 2.4%; ShexaA (lipase AP 12): 0% |
| CCC(C)(C)OC [t-amyl methyl ether] | 45 | 37.1 | 17.9 | 1.9 | – | – | – | – | – | – | – | – | – | – | – | – | – | – | – | – | – |
| CC(=O)OC(C)(C)C [t-butyl acetate] | – | – | – | 1.7 | – | – | – | – | – | – | – | – | – | – | – | – | – | 98.2 | 0 | 1.8 | – |
| CCCCCC [hexane] | – | – | – | 3.5 | – | – | – | – | – | – | – | – | 5.8 | 0.6 | 5.7 | 8.6 | 79.3 | – | – | – | – |
| Cc1ccccc1 [toluene] | 78.7 | 16.5 | 4.8 | – | 94.5 | 5.5 | 15.2 | 82.8 | 2.0 | 6.0 | 93.8 | 0.2 | 0.2 | 0 | 1.2 | 1.3 | 97.3 | 97.8 | 0 | 2.2 | SOA (lipase AP 12): 94.2%; SheptaA (lipase AP 12): 5.8%; ShexaA (lipase AP 12): 0% |
| C1CCOC1 [THF, tetrahydrofuran] | 98.7 | 1.3 | 0 | – | 98. | 2.0 | 2.6 | 97.4 | 0 | 2.0 | 98.0 | 0 | 0.3 | 0 | 0.1 | 1.6 | 98.0 | 97.3 | 0 | 2.7 | SOA (lipase AP 12): 98.4%; SheptaA (lipase AP 12): 1.6%; ShexaA (lipase AP 12): 0% |
| CCOC(C)(C)C [t-butyl ethyl ether] | 40.8 | 38.1 | 21.1 | 1.9 | – | – | 2.8 | – | 0 | – | – | – | – | – | – | – | – | – | – | – | – |
| CCCCCCCC [octane] | – | – | – | 5.0 | – | – | – | – | – | – | – | – | 7.7 | 0.5 | 2.9 | 8.9 | 80.0 | – | – | – | – |
